Counter-ions that a name gives are not always drawn.

One test deals with Aβ1-42 production. Description: Cellular assay for inhibition of Aβ1-42 production (H4 APP751 SWE clone 8.20). It is filed as cell-based. The conditions noted are these: 19 h, H4 APP751 SWE clone 8.20 cells, 19 h incubation; class symbols; read-out: Activity Rating (Aβ42 cellular IC50). In outline:
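Inhibition values are IC50s fitted to Viewlux counts after a 19 h compound exposure at 37 °C. Aβ42 was captured by the neoepitope-specific antibody 565 (0.8 ng/well) paired with N-terminal 26D6 (75 ng/well), incubated overnight at 4 °C in pH 7.4 Tris-HCl buffer containing 0.2% BSA.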
As for `CNc1nc(Nc2ccc(-n3cnc(Cl)c3)c(OC)c2)nc2c1C(O)CC2c1ccccc1` (centres unmarked) [Example 202, 2-(4-(4-chloro-1H-imidazol-1-yl)-3-methoxyphenylamino)-4-(methylamino)-7-phenyl-6,7-dihydro-5H-cyclopenta[d]pyrimidin-5-ol], the concentration for half-maximal inhibition (IC50) – broadly, the concentration at which inhibition is half-maximal – was in the range of 1.5 to 9.9 nM. Same read-out and setting: then `CCN(C)c1nc(Nc2ccc(-n3cnc(Cl)c3)c(OC)c2)nc2c1COCC2c1ccccc1` (racemic) [Example 52, N^2-(4-(4-Chloro-1H-imidazol-1-yl)-3-methoxyphenyl)-N^4-ethyl-N^4-methyl-8-phenyl-7,8-dihydro-5H-pyrano[4,3-d]pyrimidine-2,4-diamine], with 10 to 100 nM; and `COc1cc(Nc2nc3c(c(N4CCC(N(C)C)C4)n2)CCC3c2ccc(F)cc2)ccc1-n1cnc(Cl)c1` (centres unmarked) [Example 29, N-(4-(4-chloro-1H-imidazol-1-yl)-3-methoxyphenyl)-4-(3-(dimethylamino)pyrrolidin-1-yl)-7-(4-fluorophenyl)-6,7-dihydro-5H-cyclopenta[d]pyrimidin-2-amine], with 10 to 100 nM.

Take `COc1cc(Nc2nc3c(c(N(C)C)n2)CCC3c2ccc(F)cc2)ccc1-n1cnc(Cl)c1` (racemic) [Example 46, N^2-(4-(4-Chloro-1H-imidazol-1-yl)-3-methoxyphenyl)-7-(4-fluorophenyl)-N^4,N^4-dimethyl-6,7-dihydro-5H-cyclopenta[d]pyrimidine-2,4-diamine]: the IC50 was in the range of 1.5 to 9.9 nM. On the same count and under the same terms, then `CNc1nc(Nc2ccc(-n3ncnc3C)c(F)c2)nc2c1COC2c1ccc(F)cc1` (racemic) [Example 82, N2-(3-fluoro-4-(5-methyl-1H-1,2,4-triazol-1-yl)phenyl)-7-(4-fluorophenyl)-N4-methyl-5,7-dihydrofuro[3,4-d]pyrimidine-2,4-diamine, TFA], with 10 to 100 nM; and `CNc1nc(Nc2ccc(-n3cnc(Cl)c3)c(OC)c2)nc2c1CN(S(C)(=O)=O)CC2c1ccccc1` (centres unmarked) [Example 129A, N2-(4-(4-chloro-1H-imidazol-1-yl)-3-methoxyphenyl)-N4-methyl-6-(methylsulfonyl)-8-phenyl-5,6,7,8-tetrahydropyrido[4,3-d]pyrimidine-2,4-diamine], with 1.5 to 9.9 nM; and `COc1cc(Nc2nc3c(c(N4CCC(F)C4)n2)COCC3c2ccc(F)cc2)ccc1-n1cnc(Cl)c1` (stereo in doubt) [Example 57B, N-(4-(4-chloro-1H-imidazol-1-yl)-3-methoxyphenyl)-8-(4-fluorophenyl)-4-((R)-3-fluoropyrrolidin-1-yl)-7,8-dihydro-5H-pyrano[4,3-d]pyrimidin-2-amine], with 100 to 1000 nM. Still for that read-out and setting: then `CNc1nc(Nc2ccc(-n3cnc(C)c3)c(OC)n2)nc2c1CCC2c1ccc(F)cc1` (centres unmarked) [Example 267, 7-(4-fluorophenyl)-N2-(6-methoxy-5-(4-methyl-1H-imidazol-1-yl)pyridin-2-yl)-N4-methyl-6,7-dihydro-5H-cyclopenta[d]pyrimidine-2,4-diamine], with 10 to 100 nM; and `CNc1nc(Nc2ccc(-n3ncnc3C)c(F)c2)nc2c1CCC2c1cc(F)c(F)c(F)c1` (centres unmarked) [Example 104, N^2-(3-fluoro-4-(5-methyl-1H-1,2,4-triazol-1-yl)phenyl)-N^4-methyl-7-(3,4,5-trifluorophenyl)-6,7-dihydro-5H-cyclopenta[d]pyrimidine-2,4-diamine], with 10 to 100 nM. With `CNc1nc(Nc2ccc(-n3cnc(C)n3)c(F)c2)nc2c1CN(C)CC2c1ccccc1` (centres unmarked) [Example 149, N2-(3-fluoro-4-(3-methyl-1H-1,2,4-triazol-1-yl)phenyl)-N4,6-dimethyl-8-phenyl-5,6,7,8-tetrahydropyrido[4,3-d]pyrimidine-2,4-diamine], the IC50 was in the range of 10 to 100 nM.

The test is the same for the next values; noted with them: 19 h, H4 APP751 SWE clone 8.20 cells, 19 h incubation; read-out: Activity Rating (Aβ42 cellular IC50), numeric value.
For the molecule `CNc1nc(Nc2ccc(-n3cnc(C)n3)c(OC)c2)nc2c1CCC2c1ccc(F)cc1` (racemic) [Example 44, 7-(4-fluorophenyl)-N2-(3-methoxy-4-(3-methyl-1H-1,2,4-triazol-1-yl)phenyl)-N4-methyl-6,7-dihydro-5H-cyclopenta[d]pyrimidine-2,4-diamine], the IC50 stood at 13 nM. With `CNc1nc(Nc2ccc(F)cc2)nc2c1CCC2c1ccccc1` (centres unmarked) [Example 218, N2-(4-fluorophenyl)-N4-methyl-7-phenyl-6,7-dihydro-5H-cyclopenta[d]pyrimidine-2,4-diamine], the half-inhibitory concentration (IC50) is 3700 nM. Regarding `COCC(Nc1nc(Nc2ccc(-n3cnc(Cl)c3)c(OC)c2)nc2c1CCC2c1ccc(F)cc1)C1CC1` (centres unmarked) [Example 45B, N2-(4-(4-chloro-1H-imidazol-1-yl)-3-methoxyphenyl)-N4-(1-cyclopropyl-2-methoxyethyl)-7-(4-fluorophenyl)-6,7-dihydro-5H-cyclopenta[d]pyrimidine-2,4-diamine], the half-maximal inhibitory concentration (IC50) was found to be 2.5 nM. Same read-out and setting: then `CCNc1nc(Nc2ccc(-n3cnc(Cl)c3)c(OC)c2)nc2c1COCC2c1ccc(C#N)cc1` (centres unmarked) [Example 121B, 4-(2-(4-(4-chloro-1H-imidazol-1-yl)-3-methoxyphenylamino)-4-(ethylamino)-7,8-dihydro-5H-pyrano[4,3-d]pyrimidin-8-yl)benzonitrile], with 120 nM; and `CC#Cc1ccc(Nc2nc(NC)c3c(n2)C(c2ccc(F)cc2)CC3)cc1` (centres unmarked) [Example 260, 7-(4-fluorophenyl)-N4-methyl-N2-(4-(prop-1-ynyl)phenyl)-6,7-dihydro-5H-cyclopenta[d]pyrimidine-2,4-diamine], with 860 nM; and `CCC1CCCN1c1nc(Nc2ccc(-n3cnc(Cl)c3)c(OC)c2)nc2c1CCC2c1ccc(F)cc1` (single isomer, unassigned) [Example 24B, N-(4-(4-chloro-1H-imidazol-1-yl)-3-methoxyphenyl)-4-(2-ethylpyrrolidin-1-yl)-7-(4-fluorophenyl)-6,7-dihydro-5H-cyclopenta[d]pyrimidin-2-amine], with 200 nM. For the molecule `COc1cc(Nc2nc3c(c(N4CC5(CCCO5)C4)n2)CCC3c2ccccc2)ccc1-n1cnc(Cl)c1` (centres unmarked) [Example 188, N-(4-(4-chloro-1H-imidazol-1-yl)-3-methoxyphenyl)-7-phenyl-4-(5-oxa-2-azaspiro[3.4]octan-2-yl)-6,7-dihydro-5H-cyclopenta[d]pyrimidin-2-amine], the IC50 stood at 19 nM.

Staying with this test, now noted: H4 APP751 SWE clone 8.20 cells, 19 h incubation; class symbols; read-out: Activity Rating (Aβ42 cellular IC50).
With `CNc1nc(Nc2ccc(-n3cnc(Cl)c3)c(OC)c2)nc2c1COCC2c1ccc(C(F)(F)F)cc1` (centres unmarked) [Example 120B, N2-(4-(4-chloro-1H-imidazol-1-yl)-3-methoxyphenyl)-N4-methyl-8-(4-(trifluoromethyl)phenyl)-7,8-dihydro-5H-pyrano[4,3-d]pyrimidine-2,4-diamine], the half-inhibitory concentration (IC50) is 100 to 1000 nM. Take `CCN(C)c1nc(Nc2ccc(-n3cnc(Cl)c3)c(OC)c2)nc2c1CCC2c1ccccc1` (single isomer, unassigned) [Example 5B, N^2-(4-(4-chloro-1H-imidazol-1-yl)-3-methoxyphenyl)-N^4-ethyl-N^4-methyl-7-phenyl-6,7-dihydro-5H-cyclopenta[d]pyrimidine-2,4-diamine]: the IC50 was 10 to 100 nM.

As to `CCNc1nc(Nc2ccc(-n3cnc(Cl)c3)c(OC)c2)nc2c1CN(C(=O)OC)CC2c1ccccc1` (centres unmarked) [Example 131, Methyl 2-(4-(4-chloro-1H-imidazol-1-yl)-3-methoxyphenylamino)-4-(ethylamino)-8-phenyl-7,8-dihydropyrido[4,3-d]pyrimidine-6(5H)-carboxylate], the IC50 is 10 to 100 nM. On the same count and under the same terms, then `CNc1nc(Nc2ccc(-n3cnc(C)n3)c(OC)c2)nc2c1COCC2c1ccc(Cl)cc1` (single isomer, unassigned) [Example 71A, 8-(4-chlorophenyl)-N^2-(3-methoxy-4-(3-methyl-1H-1,2,4-triazol-1-yl)phenyl)-N^4-methyl-7,8-dihydro-5H-pyrano[4,3-d]pyrimidine-2,4-diamine], with 1.5 to 9.9 nM.

Consider `CCNc1nc(Nc2ccc(-n3cnc(Cl)c3)c(OC)c2)nc2c1COC2c1ccc(F)cc1` (single isomer, unassigned) [Example 75A, N^2-(4-(4-chloro-1H-imidazol-1-yl)-3-methoxyphenyl)-N^4-ethyl-7-(4-fluorophenyl)-5,7-dihydrofuro[3,4-d]pyrimidine-2,4-diamine], for which the 50% inhibitory concentration (IC50) was in the range of 1.5 to 9.9 nM.

Take `COc1cc(Nc2nc3c(c(N4CCC4)n2)CCC3c2ccc(OC(F)(F)F)cc2)ccc1-n1cnc(Cl)c1` (single isomer, unassigned) [Example 101A, 4-(azetidin-1-yl)-N-(4-(4-chloro-1H-imidazol-1-yl)-3-methoxyphenyl)-7-(4-(trifluoromethoxy)phenyl)-6,7-dihydro-5H-cyclopenta[d]pyrimidin-2-amine]: the half-maximal inhibitory concentration (IC50) is 1.5 to 9.9 nM. Same read-out and setting: then `COc1cc(Nc2nc3c(c(N4C[C@@H](C)O[C@@H](C)C4)n2)CCC3c2ccc(F)cc2)ccc1-n1cnc(Cl)c1` (single isomer, unassigned) [Example 21A], with 10 to 100 nM; and `CNc1nc(Nc2ccc(-n3ncnc3C)c(F)c2)nc2c1COCC2c1ccc(Cl)cc1` (single isomer, unassigned) [Example 69B, 8-(4-chlorophenyl)-N^2-(3-fluoro-4-(5-methyl-1H-1,2,4-triazol-1-yl)phenyl)-N^4-methyl-7,8-dihydro-5H-pyrano[4,3-d]pyrimidine-2,4-diamine], with 100 to 1000 nM.

The same test, now with this note: H4 APP751 SWE clone 8.20 cells, 19 h incubation; read-out: Activity Rating (Aβ42 cellular IC50), numeric value.
Regarding `COc1cc(Nc2nc3c(c(N4CC(C)(OC)C4)n2)CCC3c2ccc(F)cc2)ccc1-n1cnc(C)n1` (centres unmarked) [Example 192, 7-(4-fluorophenyl)-4-(3-methoxy-3-methylazetidin-1-yl)-N-(3-methoxy-4-(3-methyl-1H-1,2,4-triazol-1-yl)phenyl)-6,7-dihydro-5H-cyclopenta[d]pyrimidin-2-amine], the IC50 was 64 nM.

Source of the values: patent publication US8637525B2, “Compounds for the reduction of beta-amyloid production” (Bristol-Myers Squibb Company, priority 2009, dated 2014).
